Laboratory results taken from the NIST ThermoML archive (doi:10.1016/j.jct.2004.09.021).

Legend:
[1] = refractive index (Na D-line) (dimensionless); conditions: 101.33 kPa, Liquid
[2] = 101 kPa, Liquid
[3] = xn = mol fraction of the nth substance listed; conditions: 101 kPa, Liquid
[4] = refractive index (Na D-line) (dimensionless); xn = mol fraction of the nth substance listed; conditions: 101 kPa, Liquid

CCCCCC [hexane]
Conditions | mass density, 293.15 K [kg/m3] | mass density, 298.15 K [kg/m3] | mass density, 303.15 K [kg/m3] | refractive index, 293.15 K | refractive index, 298.15 K | refractive index, 303.15 K | viscosity, 293.15 K [mPa·s] | viscosity, 298.15 K [mPa·s] | viscosity, 303.15 K [mPa·s]
[1] | – | – | – | 1.3759 | 1.3732 | 1.3709 | – | – | –
[2] | 659.5 | 654.96 | 650.42 | – | – | – | 0.3114 | 0.2974 | 0.2838

CCCCCCCCCC [decane]
Conditions | mass density, 293.15 K [kg/m3] | mass density, 298.15 K [kg/m3] | mass density, 303.15 K [kg/m3] | refractive index, 293.15 K | refractive index, 298.15 K | refractive index, 303.15 K | viscosity, 293.15 K [mPa·s] | viscosity, 298.15 K [mPa·s] | viscosity, 303.15 K [mPa·s]
[1] | – | – | – | 1.4148 | 1.4118 | 1.4089 | – | – | –
[2] | 729.91 | 726.16 | 722.36 | – | – | – | 0.9169 | 0.8512 | 0.7898

CCCCCCCCC [nonane]
Conditions | mass density, 293.15 K [kg/m3] | mass density, 298.15 K [kg/m3] | mass density, 303.15 K [kg/m3] | refractive index, 293.15 K | refractive index, 298.15 K | refractive index, 303.15 K | viscosity, 293.15 K [mPa·s] | viscosity, 298.15 K [mPa·s] | viscosity, 303.15 K [mPa·s]
[1] | – | – | – | 1.404 | 1.4027 | 1.4002 | – | – | –
[2] | 717.59 | 713.71 | 709.81 | – | – | – | 0.7136 | 0.6715 | 0.6307

CCCCCCCC [octane]
Conditions | mass density, 293.15 K [kg/m3] | mass density, 298.15 K [kg/m3] | mass density, 303.15 K [kg/m3] | refractive index, 293.15 K | refractive index, 298.15 K | refractive index, 303.15 K | viscosity, 293.15 K [mPa·s] | viscosity, 298.15 K [mPa·s] | viscosity, 303.15 K [mPa·s]
[1] | – | – | – | 1.3965 | 1.3947 | 1.3926 | – | – | –
[2] | 702.61 | 698.57 | 694.56 | – | – | – | 0.5464 | 0.5123 | 0.483

COc1ccccc1 [anisole]
Conditions | mass density, 293.15 K [kg/m3] | mass density, 298.15 K [kg/m3] | mass density, 303.15 K [kg/m3] | refractive index, 293.15 K | refractive index, 298.15 K | refractive index, 303.15 K | viscosity, 293.15 K [mPa·s] | viscosity, 298.15 K [mPa·s] | viscosity, 303.15 K [mPa·s]
[1] | – | – | – | 1.5161 | 1.5141 | 1.5129 | – | – | –
[2] | 993.81 | 989.15 | 984.42 | – | – | – | 1.085 | 1.017 | 0.9285

CCCCCCC [heptane]
Conditions | mass density, 293.15 K [kg/m3] | mass density, 298.15 K [kg/m3] | mass density, 303.15 K [kg/m3] | refractive index, 293.15 K | refractive index, 298.15 K | refractive index, 303.15 K | viscosity, 293.15 K [mPa·s] | viscosity, 298.15 K [mPa·s] | viscosity, 303.15 K [mPa·s]
[1] | – | – | – | 1.3872 | 1.3855 | 1.3827 | – | – | –
[2] | 683.96 | 679.77 | 675.5 | – | – | – | 0.4127 | 0.3909 | 0.3702

COc1ccccc1 [anisole] + CCCCCCCCCC
Conditions | mass density, 293.15 K [kg/m3] | mass density, 298.15 K [kg/m3] | mass density, 303.15 K [kg/m3] | refractive index, 293.15 K | refractive index, 298.15 K | refractive index, 303.15 K | viscosity, 293.15 K [mPa·s] | viscosity, 298.15 K [mPa·s] | viscosity, 303.15 K [mPa·s]
[3], x1 = 0.0846 | 742.22 | 738.35 | 734.48 | – | – | – | 0.8966 | 0.8362 | 0.7797
[3], x1 = 0.173 | 756.19 | 752.25 | 748.48 | – | – | – | 0.8837 | 0.8195 | 0.7679
[3], x1 = 0.2574 | 770.86 | 766.87 | 763.13 | – | – | – | 0.865 | 0.8019 | 0.7542
[3], x1 = 0.3675 | 792.19 | 788.11 | 784.45 | – | – | – | 0.8512 | 0.7887 | 0.7392
[3], x1 = 0.4546 | 811.1 | 806.89 | 803.36 | – | – | – | 0.8492 | 0.7883 | 0.7322
[3], x1 = 0.5661 | 838.25 | 833.93 | 830.59 | – | – | – | 0.8679 | 0.801 | 0.7387
[3], x1 = 0.6583 | 863.76 | 859.36 | 856.21 | – | – | – | 0.8896 | 0.8198 | 0.7585
[3], x1 = 0.7725 | 900.09 | 895.52 | 892.66 | – | – | – | 0.9343 | 0.8683 | 0.799
[3], x1 = 0.8798 | 940.35 | 935.67 | 933.11 | – | – | – | 0.9984 | 0.9296 | 0.8558
[3], x1 = 1 | 993.81 | 989.15 | 984.42 | – | – | – | 1.085 | 1.017 | 0.9285
[4], x1 = 0.1071 | – | – | – | 1.4198 | 1.4165 | 1.4131 | – | – | –
[4], x1 = 0.1979 | – | – | – | 1.425 | 1.4218 | 1.4186 | – | – | –
[4], x1 = 0.31 | – | – | – | 1.4328 | 1.4297 | 1.4269 | – | – | –
[4], x1 = 0.409 | – | – | – | 1.4405 | 1.4374 | 1.4349 | – | – | –
[4], x1 = 0.508 | – | – | – | 1.4495 | 1.4467 | 1.4443 | – | – | –
[4], x1 = 0.6 | – | – | – | 1.4591 | 1.4563 | 1.4541 | – | – | –
[4], x1 = 0.686 | – | – | – | 1.4694 | 1.4667 | 1.4645 | – | – | –
[4], x1 = 0.789 | – | – | – | 1.4831 | 1.4803 | 1.4784 | – | – | –
[4], x1 = 0.887 | – | – | – | 1.4973 | 1.4947 | 1.4927 | – | – | –
[4], x1 = 1 | – | – | – | 1.5161 | 1.5141 | 1.5129 | – | – | –

CCCCCCCCCCCC [dodecane]
Conditions | mass density, 293.15 K [kg/m3] | mass density, 298.15 K [kg/m3] | mass density, 303.15 K [kg/m3] | refractive index, 293.15 K | refractive index, 298.15 K | refractive index, 303.15 K | viscosity, 293.15 K [mPa·s] | viscosity, 298.15 K [mPa·s] | viscosity, 303.15 K [mPa·s]
[1] | – | – | – | 1.421 | 1.4172 | 1.4135 | – | – | –
[2] | 748.78 | 745.14 | 741.52 | – | – | – | 1.487 | 1.373 | 1.25

CCCCCC [hexane] + COc1ccccc1
x2 = 0
Conditions | mass density, 293.15 K [kg/m3] | mass density, 298.15 K [kg/m3] | mass density, 303.15 K [kg/m3] | refractive index, 293.15 K | refractive index, 298.15 K | refractive index, 303.15 K | viscosity, 293.15 K [mPa·s] | viscosity, 298.15 K [mPa·s] | viscosity, 303.15 K [mPa·s]
[3] | 659.5 | 654.96 | 650.42 | – | – | – | 0.3114 | 0.2974 | 0.2838
[4] | – | – | – | 1.3759 | 1.3732 | 1.3709 | – | – | –
